# System: IMR90 fibroblasts, CD4+ and CD8+ T cells, CD34+ cells
# Test: Senescence and heterochromatic hypomethylation with cell division/aging, rescue with Vitamin C
# Assay type: cell-based, human
# Conditions: activator of TET proteins
# From the text: Example 9: The inventors investigated heterochromatin dysfunction as a function of both cellular age and number of cell divisions, using multiple cellular systems: IMR90 fibroblasts, freshly isolated CD4+ and CD8+ T cells from young and old human donors, and commercially available CD34^+ cells (enriched for hematopoietic precursor cells) from human newborns (cord blood) and older adults.
# Tet1/2/3 triple-foxed (Tet1/2/3 Tfl) RosaYFP^LSL or RosaYFP^LSL mice were used, left […] with tamoxifen; (ii) DNMT3a (or multiple Dnmt) foxed mice, also bearing the RosaYFP^LSL reporter and left […] with tamoxifen. Mouse fibroblasts have a longer passage time to senescence, so IMR90 human fibroblasts in which partial TET or DNMT loss-of-function was induced by genome editing were also used.
structure (smiles),measurement,value
O=C1O[C@H]([C@@H](O)CO)C(O)=C1O [Vitamin C],hypomethylation observed with cell division and/or aging,can be rescued
same,time to senescence,can be delayed

# — patent US20230042198A1, “Methods and Compositions for Modulationg Heterochromatin Dysfunction, Genomic Instability, and Associate Conditions” (La Jolla Institute for Immunology, priority 2019, published 2023)
